This test has as its target Transitional endoplasmic reticulum ATPase (Homo sapiens, UniProt P55072).
Sequence of Transitional endoplasmic reticulum ATPase (P55072 whole entry): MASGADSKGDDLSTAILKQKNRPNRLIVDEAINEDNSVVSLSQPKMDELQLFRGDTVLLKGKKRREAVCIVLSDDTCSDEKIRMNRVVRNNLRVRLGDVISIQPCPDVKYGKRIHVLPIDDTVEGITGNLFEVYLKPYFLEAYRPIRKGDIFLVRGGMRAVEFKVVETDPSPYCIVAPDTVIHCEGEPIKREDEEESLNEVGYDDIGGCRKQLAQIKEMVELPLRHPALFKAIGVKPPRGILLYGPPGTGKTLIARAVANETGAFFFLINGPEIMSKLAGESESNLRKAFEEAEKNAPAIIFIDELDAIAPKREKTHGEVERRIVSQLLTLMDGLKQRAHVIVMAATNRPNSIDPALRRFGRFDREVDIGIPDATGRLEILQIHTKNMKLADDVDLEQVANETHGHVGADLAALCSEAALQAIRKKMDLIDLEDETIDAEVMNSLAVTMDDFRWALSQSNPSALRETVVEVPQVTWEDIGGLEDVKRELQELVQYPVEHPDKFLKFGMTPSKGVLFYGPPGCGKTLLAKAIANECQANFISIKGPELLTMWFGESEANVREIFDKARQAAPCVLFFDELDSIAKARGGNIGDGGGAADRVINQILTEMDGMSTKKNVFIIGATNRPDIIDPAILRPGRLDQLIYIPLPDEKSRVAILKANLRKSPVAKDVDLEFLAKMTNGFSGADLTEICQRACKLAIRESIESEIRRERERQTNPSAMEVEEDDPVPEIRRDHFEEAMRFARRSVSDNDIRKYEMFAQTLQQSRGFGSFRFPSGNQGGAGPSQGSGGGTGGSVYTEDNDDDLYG
Description: Inhibition of human p97 ATPase incubated for 15 mins by ADP Glo luminescence assay
For orientation: IC50 means the concentration at which inhibition is half-maximal. `COc1cccc2c(CCc3ccccc3)nc(-n3c(N)nc4ccccc43)nc12` gave an IC50 greater than 5 µM.
For the molecule `Cc1nc2ccccc2n1-c1nc2c(c(NCc3ccccc3)n1)CCCC2`, inhibition was half-maximal at 0.098 µM (IC50).
In turn, `COc1cccc2c(NCc3ccccc3)nc(Nc3nc4ccccc4[nH]3)nc12` had a half-maximal inhibitory concentration (IC50) greater than 5 µM.
Under `Cc1cc2ccc(C#N)cc2n1-c1nc2c(c(NCc3ccccc3)n1)CNCC2` stands 8.91 µM; under `COc1cccc2c(NCc3ccccc3)nc(-n3c(NC(C)=O)nc4ccccc43)nc12`, greater than 5 µM.
In the case of `COc1nc2ccccc2n1-c1nc(NCc2ccccc2)c2ncsc2n1`, the IC50 stood at 0.18 µM.
As to `Cc1cc2c(C(F)(F)F)cccc2n1-c1nc2c(c(NCc3ccccc3)n1)CNCC2`, the IC50 amounted to 3.91 µM.
`COc1ccc2c(c1)cc(C)n2-c1nc2c(c(NCc3ccccc3)n1)CNCC2` returned an IC50 greater than 5 µM.
In turn, `COc1cccc2c(NCc3ccccc3)nc(-n3c(=O)[nH]c4ccccc43)nc12` showed an IC50 of 1.07 µM.
With `COc1cccc2c(NCc3ccccc3)nc(-n3c(N(C)C)nc4ccccc43)nc12`, the concentration for half-maximal inhibition (IC50) worked out at 0.227 µM.
Molecule `COc1ccc2cc(C)n(-c3nc4c(c(NCc5ccccc5)n3)CNCC4)c2c1` had an IC50 greater than 5 µM.
Under `COc1nc2ccccc2n1-c1nc2c(c(NCc3ccccc3)n1)CNCC2` stands 3.13 µM; under `COCCOc1cccc2c(NCc3ccccc3)nc(-n3c(C)nc4ccccc43)nc12`, 0.304 µM; under `COc1cccc2c(NC(C)c3ccccc3)nc(-n3c(N)nc4ccccc43)nc12` (configuration not stated), greater than 5 µM.
Under `Nc1nc2ccccc2n1-c1nc2c(c(NCc3ccccc3)n1)CNCC2` stands greater than 5 µM; under `COc1cccc2c(Cc3ccccc3)nc(-n3c(N)nc4ccccc43)nc12`, greater than 5 µM; under `CCc1cc2ccccc2n1-c1nc2c(c(NCc3ccccc3)n1)CCCC2`, 0.445 µM.
`COc1cccc2c1cc(C)n2-c1nc2c(c(NCc3ccccc3)n1)CNCC2`: the IC50 worked out at 2.08 µM.
Consider `COc1cccc2c(NC(=O)c3ccccc3)nc(-n3c(N)nc4ccccc43)nc12`, for which the IC50 is greater than 5 µM.
Molecule `COc1cccc2c(NCc3ccccc3)nc(-n3c(N)nc(C)c3C)nc12` gave an IC50 greater than 5 µM.
Under `Cc1cc2cc(C#N)ccc2n1-c1nc2c(c(NCc3ccccc3)n1)CNCC2` stands greater than 5 µM; under `COc1cccc2c(NCc3ccccc3)nc(Cn3c(C)nc4ccccc43)nc12`, greater than 5 µM; under `Nc1nc2ccccc2n1-c1nc(NCc2ccccc2)c2ccsc2n1`, 3 µM.
Under `COc1cccc2c(NCc3ccccc3)nc(-n3c(N)nc4c3CCCC4)nc12` stands greater than 5 µM; under `Nc1nc2ccccc2n1-c1nc2c(c(NCc3ccccc3)n1)CCCC2`, 0.425 µM; under `Cc1ccc2cc(C)n(-c3nc4c(c(NCc5ccccc5)n3)CNCC4)c2c1`, 3.86 µM.
Molecule `CCc1nc2ccccc2n1-c1nc(NCc2ccccc2)c2cccc(OC)c2n1` showed an IC50 greater than 5 µM.
Under `Cc1nc2ccccc2n1-c1nc2c(c(NCc3ccccc3)n1)CNCC2` stands greater than 5 µM; under `COc1cccc2c(NCc3ccccc3)nc(-n3c(C)nc4ccccc43)nc12`, 0.152 µM; under `COc1cccc2c(NCc3ccccc3)nc(-n3cnc4ccccc43)nc12`, greater than 5 µM.
`COc1cccc2c(NCCc3ccccc3)nc(-n3c(N)nc4ccccc43)nc12` showed an IC50 greater than 5 µM.
Under `COc1cccc2c(N(C)Cc3ccccc3)nc(-n3c(N)nc4ccccc43)nc12` stands greater than 5 µM.
As to `COc1cccc2c(NCc3ccccc3)nc(-n3c(OC)nc4ccccc43)nc12`, half-maximal inhibition (IC50) was put at 0.145 µM.
Under `COCCOc1cccc2c(NCc3ccccc3)nc(-n3c(OC)nc4ccccc43)nc12` stands 0.37 µM; under `Cc1ccc2c(c1)cc(C)n2-c1nc2c(c(NCc3ccccc3)n1)CNCC2`, greater than 5 µM; under `COc1cccc2c(OCc3ccccc3)nc(-n3c(N)nc4ccccc43)nc12`, greater than 5 µM.
Take `Cc1cc2c(C(=O)NC(C)C)cccc2n1-c1nc2c(c(NCc3ccccc3)n1)CNCC2`: the IC50 was found to be 4.83 µM.
